One assay concerns the target NAALADase (Homo sapiens, UniProt Q04609). The experiment in a line: In vitro inhibition of NAALADase activity. The format is biochemical.
A short description of assay [1]: Passive avoidance anxiolytic model (shuttlebox, latency to cross). The assay is classed as in vivo. As to conditions: for Latency to Cross, Mean / Latency to Cross, individual animals: Table II. The source says:
The passive avoidance test consists of an acquisition and a retention trial. On the day prior to dosing, the animal is placed into the shuttlebox and allowed to acclimate. A conditioned stimulus (light) is presented for approximately 100 seconds. When the animal crosses to the dark compartment, a mild (0.5 mA) footshock is presented until the animal returns to the lighted compartment or for approximately 10 seconds. Animals failing to cross during acquisition trial is randomly replaced. The day following acquisition, animals are administered test article, saline or flurazepam 10 minutes prior to being placed in the shuttlebox and tested for retention as described above. Latency to cross (in seconds) is recorded.

The mark [2] stands for this setting: Flurazepam 3 mg/kg IP group, acquisition is on the day prior to dosing.
[3] abbreviates: Flurazepam 5 mg/kg IP group, Table I second study, day prior to dosing.
Where [4] appears, read: Flurazepam 5 mg/kg IP, Table I second study.

Where “and” joins values, the source holds several entries; their conditions need not be identical. Equal values may be shown once.

Usually Ki stands for a dissociation constant, usually derived from enzyme kinetics or from competition with a known ligand. A low value points to a stronger hold on the target.

Sequence of NAALADase (Q04609 whole entry): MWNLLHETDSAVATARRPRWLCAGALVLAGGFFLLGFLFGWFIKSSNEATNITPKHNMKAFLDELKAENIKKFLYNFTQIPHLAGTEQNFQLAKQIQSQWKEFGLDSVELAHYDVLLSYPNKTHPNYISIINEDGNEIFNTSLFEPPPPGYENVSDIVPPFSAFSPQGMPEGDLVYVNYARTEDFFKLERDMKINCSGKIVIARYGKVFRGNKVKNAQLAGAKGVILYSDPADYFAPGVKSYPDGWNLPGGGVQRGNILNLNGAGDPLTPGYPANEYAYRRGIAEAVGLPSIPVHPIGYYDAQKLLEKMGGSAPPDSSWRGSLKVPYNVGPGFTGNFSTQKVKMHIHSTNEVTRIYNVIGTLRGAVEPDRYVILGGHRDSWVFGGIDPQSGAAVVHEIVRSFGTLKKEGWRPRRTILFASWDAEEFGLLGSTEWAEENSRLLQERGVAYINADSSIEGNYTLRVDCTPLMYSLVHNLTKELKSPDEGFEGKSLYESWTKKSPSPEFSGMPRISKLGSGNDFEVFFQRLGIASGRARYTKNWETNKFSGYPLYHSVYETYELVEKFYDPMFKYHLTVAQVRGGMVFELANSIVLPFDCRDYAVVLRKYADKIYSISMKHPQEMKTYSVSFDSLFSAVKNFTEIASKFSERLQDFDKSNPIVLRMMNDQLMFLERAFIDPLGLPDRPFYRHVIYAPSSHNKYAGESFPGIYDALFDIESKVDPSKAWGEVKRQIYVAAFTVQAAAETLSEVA

On NAALADase, `O=C(O)CCC(CCS)C(=O)O` (stereo not shown) [Compound 1, 2-(2-sulfanylethyl)pentanedioic acid] had a Ki of 510 nM. For the same compound, the “anxiolytic properties in passive avoidance” value in assay [1] (Example 14) is “exhibit anxiolytic properties”. In addition, the “performance compared with flurazepam in passive avoidance” value in assay [1] (Example 14, in some experiments) was “performed better than the known anxiolytic agent, flurazepam”. The results for the “Latency to Cross, Mean” value in assay [1] (Compound 1 1 mg/kg PO), in assay [1] (Compound 1 10 mg/kg PO) and in assay [1] (Compound 1 100 mg/kg PO) were 34.8 s, 23.6 s and 18.0 s, respectively. The “Latency to Cross, individual animals” value in assay [1] (Compound 1 1 mg/kg PO, 1 mg/kg) was 5.9 seconds and 15.8 seconds and 28.4 seconds and 30.3 seconds and 100.0 seconds (3×) and 12.3 seconds and 27.9 seconds and 23.5 seconds and 3.9 seconds and 13.1 seconds and 0.2 seconds and 41.3 seconds and 20.1 seconds; in assay [1] (Compound 1 10 mg/kg PO, 10 mg/kg), 1.8 s and 28.5 s and 64.1 s and 3.2 s and 14.7 s and 10.3 s and 3.3 s and 24.6 s and 9.4 s and 100.0 s and 22.7 s and 6.6 s and 14.0 s and 38.8 s and 12.1 s; in assay [1] (Compound 1 100 mg/kg PO, 100 mg/kg), 15.0 s and 19.2 s and 5.6 s and 19.3 s and 6.2 s and 55.7 s and 25.5 s and 21.5 s and 6.6 s and 15.1 s and 8.4 s and 17.4 s and 0.5 s and 0.7 s and 52.8 s.

For `CCN(CC)CCN1C(=O)CN=C(c2ccccc2F)c2cc(Cl)ccc21` [Flurazepam, flurazepam, reference compound], the results for the “Latency to Cross, Acquisition Trial, MEAN” value in assay [1] (setting [2]) and in assay [1] (setting [3]) were 10.1 s and 8.4 s, respectively. The “Latency to Cross, Acquisition Trial, individual animals” value was 7.0 s and 9.5 s and 8.8 s and 2.8 s and 19.3 s and 5.4 s and 8.2 s and 28.2 s and 7.1 s and 2.4 s and 16.7 s and 8.4 s and 11.3 s and 6.9 s and 9.1 s in assay [1] (setting [2]); 6.6 s and 39.8 s and 2.7 s and 10.6 s and 0.5 s and 0.1 s and 7.4 s and 4.0 s and 4.9 s and 14.7 s and 10.1 s and 9.5 s and 1.9 s and 12.9 s and 0.7 s in assay [1] (setting [3]). Besides, the “Latency to Cross, Retention Trial, MEAN” value in assay [1] (Flurazepam 3 mg/kg IP, 10 minutes before test) stood at 47.5 s; in assay [1] (setting [4]), 20.8 s. The “Latency to Cross, Retention Trial, individual animals” value in assay [1] (Flurazepam 3 mg/kg IP, 10 minutes before test, stimulus about 100 seconds) is 83.3 seconds and 100.0 seconds (4×) and 5.5 seconds and 4.7 seconds and 16.1 seconds and 65.3 seconds and 6.9 seconds and 2.1 seconds and 34.1 seconds and 2.2 seconds and 47.5 seconds and 34.9 seconds; in assay [1] (setting [4]), 11.2 s and 56.3 s and 10.5 s and 23.9 s and 6.5 s and 6.0 s and 13.4 s and 0.8 s and 21.4 s and 2.9 s and 67.2 s and 19.0 s and 58.3 s and 4.8 s and 9.7 s. In addition, the “Latency to Cross, Mean” value in assay [1] (Flurazepam 5 mg/kg IP) stood at 12.9 s. Further, in assay [1] (Flurazepam 5 mg/kg IP), the “Latency to Cross, individual animals” value was 4.7 seconds and 9.6 seconds and 4.1 seconds (2×) and 26.0 seconds and 0.3 seconds (2×) and 4.0 seconds (2×) and 8.0 seconds and 3.5 seconds and 12.0 seconds and 16.9 seconds and 89.0 seconds and 6.4 seconds.

(Values after patent US6376478B1, “Pharmaceutical compositions and methods for treating anxiety, anxiety disorders and memory impairment using naaladase inhibitors” (Guilford Pharmaceuticals Inc., priority 1999, dated 2002).)
